Assay results published in PubChem BioAssay (NCI).
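Values below derive from 48-hour exposures of cells grown in 96-well plates, with endpoints linearly interpolated between the two concentrations bracketing the appropriate inhibition level. Abbreviation: GI50, concentration required for 50% inhibition of growth. TGI: total growth inhibition.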

Columns and labels:
Test in all cases: NCI tumour cell line growth inhibition, 48 h
MALME-3M melanoma = system: MALME-3M melanoma
MOLT-4 leukemia = system: MOLT-4 leukemia
NCI-H226 lung = system: NCI-H226 lung
NCI-H23 lung = system: NCI-H23 lung
OVCAR-3 ovarian = system: OVCAR-3 ovarian
OVCAR-4 ovarian = system: OVCAR-4 ovarian
OVCAR-5 ovarian = system: OVCAR-5 ovarian
SF-268 CNS = system: SF-268 CNS
SF-539 CNS = system: SF-539 CNS
UACC-62 melanoma = system: UACC-62 melanoma

Structure (SMILES)	GI50 (MALME-3M melanoma) [µM]	TGI (MALME-3M melanoma) [µM]	GI50 (MOLT-4 leukemia) [µM]	TGI (MOLT-4 leukemia) [µM]	TGI (NCI-H226 lung) [µM]	GI50 (NCI-H23 lung) [µM]	TGI (NCI-H23 lung) [µM]	GI50 (OVCAR-3 ovarian) [µM]	TGI (OVCAR-3 ovarian) [µM]	GI50 (OVCAR-4 ovarian) [µM]	TGI (OVCAR-4 ovarian) [µM]	GI50 (OVCAR-5 ovarian) [µM]	TGI (OVCAR-5 ovarian) [µM]	GI50 (SF-268 CNS) [µM]	TGI (SF-268 CNS) [µM]	GI50 (SF-539 CNS) [µM]	TGI (SF-539 CNS) [µM]	GI50 (UACC-62 melanoma) [µM]	TGI (UACC-62 melanoma) [µM]	GI50 (NCI-H226 lung) [µM]
CC(=O)N=c1ccc2nc3c(cc(N)c4ccccc43)oc-2c1	1.39	2.84	0.353	5.26	> 39.1	1.27	4.25	0.207	0.684	0.409	1.64	1.8	3.94	1.66	3.43	1.63	3.05	1.41	2.72	–
N#CCCN(c1ccc(-c2nnc(NC(=O)CNNC(=O)CC(=O)Nc3ccccc3)s2)cc1)S(=O)(=O)c1ccccc1	–	> 100	–	> 100	> 100	–	> 100	–	> 100	–	> 100	–	> 100	–	> 100	–	> 100	–	> 100	–
CCCCCCCC[N+](C)(CCCCCCCC)CCCCCCCC	0.224	0.713	0.324	1.37	1.49	0.267	1.13	0.267	0.792	0.371	1.67	0.621	1.98	0.441	1.53	0.513	1.66	0.302	1.32	0.406
CN(C)CCCc1c[nH]c2ccccc12	–	> 100	–	> 100	> 100	–	> 100	–	> 100	–	> 100	–	> 100	–	> 100	–	> 100	–	> 100	–
CCCN(CCC)c1ccc(/C=N/NC(=O)c2cccnc2)c(Cl)c1	15	36.1	12.9	46.2	0.707	14.1	45.4	2.93	9.29	2.32	35.7	1.22	4.73	15.5	38.9	11.6	26.5	0.875	4.6	0.241
CC1=C(C(=O)Nc2ccc(Cl)c(Cl)c2)C(c2ccco2)C(C(=O)Nc2ccc(Cl)c(Cl)c2)=C(C)N1	–	29.5	–	48	25.6	–	35.2	–	20.2	–	24.6	–	29.3	–	23.9	–	27.7	–	26	–
Nc1ncnc2c1ncn2C1OC(CO)=CC1O (centres undefined)	–	> 37.5	–	> 37.5	> 37.5	–	> 37.5	–	> 37.5	–	> 37.5	–	> 37.5	–	> 37.5	–	> 37.5	–	> 37.5	–
COc1cc(-c2cc(-c3nc4ccc(Cl)cc4[nH]3)[nH]n2)cc(OC)c1OC	2.58	8.32	2.02	4.82	7.23	2.73	8.89	3.5	12.1	1.38	4.37	12.1	30.2	3.6	13.2	4.66	18.3	1.97	4.95	1.88
COC1=CC(c2ccc[nH]2)=N/C1=C\c1ccc[nH]1	0.723	4.25	0.0317	33.7	12.4	2.1	19.1	0.0964	3.8	0.316	13.3	0.683	13.7	0.254	15.9	0.295	1.87	0.219	0.516	0.363
OCC12C3C4C1C1C2C3C41CO (centres undefined)	–	> 100	–	> 100	> 100	–	> 100	–	> 100	–	> 100	–	> 100	–	> 100	–	> 100	–	> 100	–
CCOC(=O)c1cn(Cc2ccccc2)c(=O)n1Cc1ccccc1	–	> 100	–	> 100	> 100	–	> 100	–	> 100	–	> 100	–	> 100	–	> 100	–	> 100	–	> 100	–
NS(=O)(=O)c1ccc(N2N=C3c4ccccc4CC3C2c2ccc(Cl)cc2)cc1 (centres undefined)	4.23	19.6	7.58	> 100	38.7	11.4	34.8	17.3	34.7	9.77	30.6	15.9	56.5	22.1	54	9.07	30.8	5.97	22.7	10.9
C=C1C(=O)O[C@H]2[C@H]1CC/C(COC(=O)NCc1c[nH]c3ccc(Cl)cc13)=C\CC[C@@]1(C)O[C@@H]21	1.68	3.34	1.34	4.91	3.09	1.71	3.39	1.11	2.7	1.45	3.16	1.77	4.01	1.66	3.51	1.58	3.04	1.34	2.76	1.61
C[C@@H]1C=C2C(=O)O[C@@H]3CC[C@H](C1)[C@]23O	4.18	23.3	3.08	21	40	4.33	23	3.44	11.1	5.45	45.3	2.82	10.8	5.24	30.4	3.18	11.9	4.78	19.6	7.02
Cc1ccc(C)c(NC(=O)CC/C(=N\NC(=O)C(N)=O)C(C)C(=O)c2ccc(O)cc2)c1 (centres undefined)	–	> 100	–	> 100	> 100	–	> 100	–	> 100	–	> 100	–	> 100	–	> 100	–	> 100	–	> 100	–
